{"source": "paper PMC6811774", "about": "“Potent, selective, and subunit‐dependent activation of TRPC5 channels by a xanthine derivative” (British Journal of Pharmacology, 2019)", "key": {"[1]": {"target": "TRPC4:C1 channels (Homo sapiens, UniProt P48995+Q9UBN4)", "sequence (Q9UBN4 whole entry)": "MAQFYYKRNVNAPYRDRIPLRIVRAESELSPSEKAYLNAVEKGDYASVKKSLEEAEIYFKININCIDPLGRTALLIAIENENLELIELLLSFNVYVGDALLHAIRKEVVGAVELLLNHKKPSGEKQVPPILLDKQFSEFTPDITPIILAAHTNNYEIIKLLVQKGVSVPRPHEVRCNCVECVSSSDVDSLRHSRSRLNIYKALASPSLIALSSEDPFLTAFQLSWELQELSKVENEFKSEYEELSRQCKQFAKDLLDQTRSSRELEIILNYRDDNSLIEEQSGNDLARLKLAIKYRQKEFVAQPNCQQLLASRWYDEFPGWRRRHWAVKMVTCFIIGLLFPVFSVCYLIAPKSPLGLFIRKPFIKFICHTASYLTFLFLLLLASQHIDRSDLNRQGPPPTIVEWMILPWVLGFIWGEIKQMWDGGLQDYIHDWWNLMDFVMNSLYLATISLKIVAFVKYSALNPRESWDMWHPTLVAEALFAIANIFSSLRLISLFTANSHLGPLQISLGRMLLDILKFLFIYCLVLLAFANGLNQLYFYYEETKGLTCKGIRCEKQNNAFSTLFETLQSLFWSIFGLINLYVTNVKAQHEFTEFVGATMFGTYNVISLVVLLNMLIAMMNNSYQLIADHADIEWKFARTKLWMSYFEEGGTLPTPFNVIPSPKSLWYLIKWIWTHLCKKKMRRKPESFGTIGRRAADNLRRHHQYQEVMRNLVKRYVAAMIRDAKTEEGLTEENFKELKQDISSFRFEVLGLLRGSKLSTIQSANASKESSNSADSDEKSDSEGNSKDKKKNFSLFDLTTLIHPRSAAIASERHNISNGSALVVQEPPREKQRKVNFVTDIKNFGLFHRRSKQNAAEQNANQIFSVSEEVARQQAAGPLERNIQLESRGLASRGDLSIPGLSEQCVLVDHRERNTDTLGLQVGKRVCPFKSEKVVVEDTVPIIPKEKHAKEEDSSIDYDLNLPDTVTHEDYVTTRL", "sequence (P48995 whole entry)": "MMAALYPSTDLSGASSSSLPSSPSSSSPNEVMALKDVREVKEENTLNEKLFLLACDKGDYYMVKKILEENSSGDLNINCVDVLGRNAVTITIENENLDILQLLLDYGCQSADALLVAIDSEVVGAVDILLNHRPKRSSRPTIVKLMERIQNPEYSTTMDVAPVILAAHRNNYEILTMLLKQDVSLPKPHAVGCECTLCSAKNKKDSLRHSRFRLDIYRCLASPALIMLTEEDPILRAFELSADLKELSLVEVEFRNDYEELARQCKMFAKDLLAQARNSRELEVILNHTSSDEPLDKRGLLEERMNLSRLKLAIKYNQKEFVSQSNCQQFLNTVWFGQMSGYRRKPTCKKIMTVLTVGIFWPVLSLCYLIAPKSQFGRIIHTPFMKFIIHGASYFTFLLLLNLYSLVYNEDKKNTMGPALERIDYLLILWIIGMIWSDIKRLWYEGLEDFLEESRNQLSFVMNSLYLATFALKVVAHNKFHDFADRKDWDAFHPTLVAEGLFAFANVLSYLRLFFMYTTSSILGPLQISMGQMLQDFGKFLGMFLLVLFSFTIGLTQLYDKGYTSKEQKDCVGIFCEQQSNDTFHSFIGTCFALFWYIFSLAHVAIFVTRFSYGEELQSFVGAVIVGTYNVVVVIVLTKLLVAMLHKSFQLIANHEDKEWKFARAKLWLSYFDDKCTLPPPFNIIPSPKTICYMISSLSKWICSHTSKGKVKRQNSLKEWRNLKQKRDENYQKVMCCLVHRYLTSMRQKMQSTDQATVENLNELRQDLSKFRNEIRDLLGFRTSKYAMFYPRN", "experiment": "[Ca2+]i measurement in (Tet+) HEK T-REx cells expressing hTRPC4-C1 concatemer", "assay_type": "cell-based", "method": "HEK T‐REx™ cell line was transfected with TRPC5‐SYFP2 or TRPC4‐SYFP2 using FuGENE® HD transfection reagent. After 48 hr, cells were put under antibiotic selection using 400 μg·ml^−1 zeocin and 10 μg·ml^−1 blasticidin S (Invivogen, San Diego, California, USA). Medium changes were carried out regularly to remove dead cells. HEK T‐REx cells expressing tetracycline‐inducible human TRPC5, TRPC4–C1, and TRPC5–C1 were created as described previously (Akbulut et al., 2015; Ludlow et al., 2017; Rubaiy, Ludlow, Henrot, et al., 2017). TRPC5–C1 and TRPC4–C1 concatemers allow expression of functional channels with defined 2:2 stoichiometry that display ion permeability and current–voltage relationships distinct from those of homomeric TRPC4:C4 or TRPC5:C5 channels and consistent with those obtained upon co‐expression of TRPC1 with TRPC4 or TRPC5 (Ludlow et al., 2017; Rubaiy, Ludlow, Bon, & Beech, 2017; Rubaiy, Ludlow, Henrot, et al., 2017). Cells were cultured in DMEM‐F12 GlutaMAX (Invitrogen, Paisley, UK) containing 10% FBS (Sigma‐Aldrich, Gillingham, UK), with the addition of blasticidin (10 μg·ml^−1) and zeocin (400 μg·ml^−1) to maintain the stable incorporation of the tetracycline repressor and the channel of interest, respectively. Expression of proteins was induced by the addition of tetracycline (1 μg·ml^−1, 24 hr). Cells were maintained in a humidified incubator with 5% CO2 at 37°C. HEK 293 cells stably expressing tetracycline‐regulated human http://www.guidetopharmacology.org/GRAC/ObjectDisplayForward?objectId=494 were prepared similarly and have also been described previously (McHugh, Flemming, Xu, Perraud, & Beech, 2003). For experiments using transient co‐expression of TRPC1 and TRPC5, HEK cells at 40–60% confluency were transfected with pIRES2‐AcGFP1 and pIRES2‐DsRed‐Express2 plasmids containing human TRPC1 and TRPC5, respectively, using Lipofectamine 3000 (ThermoFisher Scientific, Yokohama, Japan). All experiments using transient expression were performed within 48 hr after transfection. […]"}, "[2]": {"test_system": "WT HEK 293 cells", "experiment": "Whole-cell patch-clamp in WT HEK 293 cells", "assay_type": "cell-based, human", "details": "AM237 1–100 nM; EA 30 nM", "procedure": "For electrophysiology experiments, cells were plated at a low density of 20–30% onto round or square glass coverslips (13 mm diameter or 5 × 5 mm), and TRPC expression in HEK T‐REx was induced with 1 μg·ml^−1 tetracycline 24 hr before experimentation. Experiments were carried out at room temperature. Extracellular solution consisted of SBS. Patch‐clamp recordings were performed in whole‐cell mode (Figure S7) and in excised outside‐out patch mode under voltage clamp at room temperature using 2–4 MΩ patch pipettes fabricated from borosilicate glass capillaries with an outside diameter of 1 mm and an inside diameter of 0.58 mm (Harvard Apparatus). The voltage protocol comprised voltage ramps applied from −100 to +100 mV every 10 s from a holding potential of 0 mV. […] All solutions were filtered using a 0.2 μm filter (Sartorius, UK)."}}}
{"compound": "Cn1c(=O)n(CCCO)c(=O)c2c1nc(Oc1ccc(Cl)c(OC(F)(F)F)c1)n2Cc1ccc(Cl)cc1", "note": "[AM237]", "values": [{"measurement": "Hill slope, inhibition of EA response", "setting": "[1]", "result": "–1.3"}, {"measurement": "Effect of pretreatment on basal [Ca2+]i", "setting": "[1]; 0.03–30 nM AM237", "result": "did not affect"}, {"measurement": "Activation upon acute administration ([Ca2+]i)", "setting": "[1]; 3-300 nM AM237", "result": "lack of activation"}, {"measurement": "Effect on whole-cell currents at +100 and -100 mV", "setting": "[2]", "result": "no significant effect"}]}
